# Measurements: publication PMC11945486, “TAS1R2/TAS1R3 Single-Nucleotide Polymorphisms Affect Sweet Taste Receptor Activation by Sweeteners: The SWEET Project” (Nutrients, 2025)
# Like-named read-outs stand apart in the source and are kept apart here. No end group written: not given here.
# Target: T1, human TAS1R2-WT/TAS1R3-T716M (Homo sapiens, UniProt Q7RTX0+Q8TE23, T716M)
# T1 construct: expressed in transfected cells; host or cells: HEK293T stably expressing Gα16gust44
# T1 sequence (Q8TE23 20-839): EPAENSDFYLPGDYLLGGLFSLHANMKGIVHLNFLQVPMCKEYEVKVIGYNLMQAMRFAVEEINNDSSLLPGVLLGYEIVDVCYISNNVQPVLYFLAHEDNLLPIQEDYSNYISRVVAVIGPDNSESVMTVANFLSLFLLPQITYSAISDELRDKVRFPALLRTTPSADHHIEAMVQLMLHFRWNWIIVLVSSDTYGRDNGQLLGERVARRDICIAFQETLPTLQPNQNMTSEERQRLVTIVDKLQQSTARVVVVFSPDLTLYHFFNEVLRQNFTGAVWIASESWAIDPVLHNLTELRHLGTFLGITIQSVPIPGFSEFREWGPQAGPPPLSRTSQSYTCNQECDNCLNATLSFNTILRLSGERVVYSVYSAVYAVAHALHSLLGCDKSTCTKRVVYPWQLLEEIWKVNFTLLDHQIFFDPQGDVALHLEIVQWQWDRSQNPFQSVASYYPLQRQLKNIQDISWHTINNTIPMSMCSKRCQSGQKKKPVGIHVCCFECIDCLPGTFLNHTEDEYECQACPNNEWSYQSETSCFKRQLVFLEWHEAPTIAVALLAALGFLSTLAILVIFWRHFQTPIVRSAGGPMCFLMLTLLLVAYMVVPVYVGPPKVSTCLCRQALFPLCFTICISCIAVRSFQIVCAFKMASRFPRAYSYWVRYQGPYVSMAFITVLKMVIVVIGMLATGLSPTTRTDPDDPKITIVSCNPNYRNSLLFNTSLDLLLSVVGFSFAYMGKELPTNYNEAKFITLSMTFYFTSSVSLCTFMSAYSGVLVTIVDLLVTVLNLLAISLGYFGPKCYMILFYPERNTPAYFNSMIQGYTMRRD
# T1 sequence (Q7RTX0 21-852 T716M): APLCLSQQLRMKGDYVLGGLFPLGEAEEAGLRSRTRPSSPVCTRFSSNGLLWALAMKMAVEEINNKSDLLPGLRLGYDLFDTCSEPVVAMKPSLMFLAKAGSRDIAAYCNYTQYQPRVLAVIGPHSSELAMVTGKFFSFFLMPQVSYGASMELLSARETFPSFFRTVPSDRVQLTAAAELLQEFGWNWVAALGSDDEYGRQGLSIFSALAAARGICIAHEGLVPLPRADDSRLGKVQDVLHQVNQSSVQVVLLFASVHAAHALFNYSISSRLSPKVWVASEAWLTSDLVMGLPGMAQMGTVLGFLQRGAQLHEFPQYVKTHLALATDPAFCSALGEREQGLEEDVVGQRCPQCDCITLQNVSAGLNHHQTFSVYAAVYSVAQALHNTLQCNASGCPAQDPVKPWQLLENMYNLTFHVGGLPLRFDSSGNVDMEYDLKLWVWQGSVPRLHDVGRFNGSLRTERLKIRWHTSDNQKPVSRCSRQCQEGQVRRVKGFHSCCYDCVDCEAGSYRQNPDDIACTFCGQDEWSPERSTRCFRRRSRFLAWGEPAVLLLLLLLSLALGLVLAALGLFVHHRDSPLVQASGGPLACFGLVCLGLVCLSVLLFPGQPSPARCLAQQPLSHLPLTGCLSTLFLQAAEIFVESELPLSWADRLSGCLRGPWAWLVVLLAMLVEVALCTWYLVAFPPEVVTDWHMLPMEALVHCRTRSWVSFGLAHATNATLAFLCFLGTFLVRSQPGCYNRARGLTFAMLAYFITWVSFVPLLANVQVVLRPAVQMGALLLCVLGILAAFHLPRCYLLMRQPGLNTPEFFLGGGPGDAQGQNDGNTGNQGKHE
# Assay: Calcium mobilisation assay, TAS1R2-WT with TAS1R3 variant T716M
# Assay type: cell-based
# Conditions: for Max ΔF/F0: maximal signal amplitude
# Excerpt: The coding sequences for TAS1R2 and TAS1R3 were commercially synthesised, and the human codon was optimised for expression in human cells. The coding sequences of human TAS1R2 and TAS1R3 were subcloned and inserted into the mammalian expression vectors pcDNA6/myc-HisA and pcDNA4/myc-HisA (Invitrogen; Thermo Fisher Scientific; Illkirch, France) between the EcoRI and NotI restriction sites, generating the plasmids pcDNA6-TAS1R2 and pcDNA4-TAS1R3, respectively. To increase protein expression in mammalian cells, an upstream start codon was used, which was a sequence called MAX, corresponding to the QBI SP163 element also described in pcDNA4-HisMax (Invitrogen; Thermo Fisher Scientific; Illkirch, France). To measure the expression level of the receptor by immunohistochemistry, we used the FLAG sequence ([…]) in the C-terminal position, which encodes the FLAG tag epitope. SNP variants of TAS1R2 and TAS1R3 were constructed based on […], respectively, using site-directed mutagenesis (Genewiz; Leipzig, Germany).
# The HEK293T cells were kindly provided by Jay P. Slack (Givaudan Flavors Corporation; Cincinnati, OH, USA). HEK293T cells stably transfected with Gα16gust44 [43, 67] were seeded in poly-D-lysine-coated clear-bottom black 96-well plates (0.35 × 10^5 cells/well) in high-glucose DMEM supplemented with 2 mM GlutaMAX, 10% dialysed foetal bovine serum with penicillin/streptomycin and G418 (400 μg/mL) at 37 °C and 6.3% CO2 in a humidified atmosphere as previously reported. […] As a negative control, HEK293T cells were mock-transfected with the empty expression vector. After a further 24 h of incubation, the HEK293T cells were washed with C1 buffer (130 mM NaCl, 5 mM KCl, 10 mM HEPES pH 7.4 and 2 mM CaCl2). The 96-well plates containing the cells were then stimulated with sweet-tasting compounds. […] Different concentration ranges were tested depending on the sweet compound injected. The Ca^2+ changes were expressed as fractional changes in fluorescent light intensity: ΔF/F = (F − F0)/F0, where F was the fluorescent light intensity at each point, and F0 was the value of emitted fluorescent light prior to stimulus application. To calculate dose–response relationships, the changes in fluorescence upon stimulus application were averaged, mock-subtracted and baseline-corrected. The dose–response data obtained were adjusted using a 4-parameter logistic equation. The half-maximal effective concentrations (EC50 values) and maximal signal amplitudes were calculated using SigmaPlot software (version 15.0) (Systat Software; San Jose, CA, USA).
# For in vitro calcium mobilisation assay performed on hTAS1R2-SNPs, hTAS1R3-SNPs and mTAS1R3-I60T, 6 to 7 concentrations were tested for each sweet compound, plus buffer alone. All concentration–receptor combinations were measured in duplicate, and each experiment was repeated at least 4 times (8 wells/concentration). Results were expressed for each concentration as ΔF/F mean ± SEM and represented as dose–response curves.
Compound,R1 = Variant EC50/WT EC50,Max ΔF/F0,EC50 (read-out: EC50) [µM],EC50 (brazzein) [µg/mL]
"O=S(=O)(O)NC1CCCCC1 [Cyclamate, cyclamate]",–,–,1860 ± 45,–
"C[C@H](CC[C@@H](O[C@@H]1O[C@H](CO[C@@H]2O[C@H](CO)[C@@H](O)[C@H](O)[C@H]2O)[C@@H](O)[C@H](O)[C@H]1O[C@@H]1O[C@H](CO)[C@@H](O)[C@H](O)[C@H]1O)C(C)(C)O)[C@H]1CC[C@@]2(C)[C@@H]3CC=C4[C@@H](CC[C@H](O[C@@H]5O[C@H](CO[C@@H]6O[C@H](CO)[C@@H](O)[C@H](O)[C@H]6O)[C@@H](O)[C@H](O)[C@H]5O)C4(C)C)[C@]3(C)[C@H](O)C[C@]12C [Mogroside V, mogroside V]",1.2,1.01 ± 0.01,36.4 ± 1,–
"COc1ccc(CCC(=O)c2c(O)cc(O[C@@H]3O[C@H](CO)[C@@H](O)[C@H](O)[C@H]3O[C@@H]3O[C@@H](C)[C@H](O)[C@@H](O)[C@H]3O)cc2O)cc1O [NHDC, neohesperidin dihydrochalcone]",1.1,0.84 ± 0.09,55.4 ± 18.4,–
OC[C@H]1O[C@H](O[C@]2(CCl)O[C@H](CCl)[C@@H](O)[C@@H]2O)[C@H](O)[C@@H](O)[C@H]1Cl [Sucralose],1.5,0.47 ± 0.02,161 ± 14,–
"brazzein (QDKCKKVYENYPVSKCQLANQCNYDCKLDKHARSGECFYDEKRNLQCICDYCEY; ends and bridges not checked; cysteine pairing not given here; UniProt P56552 1-54, looked up) [sweet-tasting protein obtained by recombinant production using the yeast Pichia pastoris]",1.0,0.94 ± 0.04,–,112.6 ± 13.6
thaumatin,1.0,0.76 ± 0.04,10 ± 0.5,–

# Further lines, results first:
R1 = Variant EC50/WT EC50,Max ΔF/F0,EC50 (read-out: EC50) [µM],EC50 (brazzein) [µg/mL],Compound
1.2,0.30 ± 0.01,739 ± 72,–,"CC1=CC(=O)NS(=O)(=O)O1 [Acesulfame K, acesulfame K]"
1.1,0.54 ± 0.01,1.3 ± 0.06,–,COC(=O)[C@H](Cc1ccccc1)NC(=O)[C@H](CC(=O)O)NCCC(C)(C)C [Neotame]
1.6,1.73 ± 0.33,21.6 ± 11.4,–,"C=C(C)[C@@H]1CC=C(/C=N/O)CC1 [Perillartine, perillartine]"
0.8,1.10 ± 0.06,30.7 ± 4,–,"C=C1C[C@@]23CC[C@H]4[C@@](C)(CCC[C@@]4(C)C(=O)O[C@@H]4O[C@H](CO)[C@@H](O)[C@H](O[C@@H]5O[C@H](CO)[C@@H](O)[C@H](O)[C@H]5O)[C@H]4O[C@@H]4O[C@H](CO)[C@@H](O)[C@H](O)[C@H]4O)[C@@H]2CC[C@]1(O[C@@H]1O[C@H](CO)[C@@H](O)[C@H](O[C@@H]2O[C@H](CO)[C@@H](O)[C@H](O)[C@H]2O)[C@H]1O[C@@H]1O[C@H](CO)[C@@H](O)[C@H](O)[C@H]1O)C3 [Rebaudioside M, rebaudioside M]"
